Measurements taken from patent publication EP3118613B1, “ELECTRIC COMPONENT WITH ORGANIC PART” (ACREO SWEDISH ICT AB, priority 2015, dated 2017).
“Also recorded” adds a separate entry of the source.

Experiments:
[1] = Cyclic voltammetry, onset potential of polymerization; format: physicochemical; conditions: 1 mg/ml in 0.01 M NaCl, ITO working electrode, Ag/AgCl reference, 50 mV/s
Protocol: In order to define the on-set potential of the polymerization of the trimer a three electrode setup was used. The working electrode is an ITO coated glass, the counter electrode is a Platinum sheet and the reference electrode is an Ag/AgCl saturated electrode. The electrolyte was 1mg/ml of compound 1 in 0.01M NaCl. The active area of the ITO was 21mm x 8mm. A cyclic voltametry was performed in order to define the onset potential. The potential was applied between the working and the reference electrode while the current was measured between the working and the counter electrode. The potential was scanned from +0.5V to -0.5V, starting from 0V with a scan rate of 50mV/s. During the first scan current increases at around +0.3V defining the onset potential of the polymerization were observed. The polymer is deposited on the active area of the ITO coated glass.
In order to define the on-set potential of the polymerization of the trimer we used a three electrode setup. The working electrode is an ITO coated glass, the counter electrode is a Platinum sheet and the reference electrode is a Ag/AgCl saturated electrode. The electrolyte was 1 mg/ml of compound 1 in 0.01 M NaCl. The active area of the ITO was 21 mm x 8 mm. […] The potential was applied between the working and the reference electrode while the current was measured between the working and the counter electrode. […]

[2] = Conductivity of ETE-S polymerized in air; format: physicochemical
Protocol: The conductivity of ETE-S based wires was measured using two Au probes applied into individual xylem wires along the stem (Fig. 38) and found to be equal to 7.25 +- 3.38 S/cm (n=17). […] The high conductivity was retained for cm scale wires showing that good interconnectivity is achieved along the xylem wires. […] The conductivity of 10mg/ml solution is 10^-5 S/cm while for 50mg/ml is on the order of 10^-3S/CM. In the plants we typically administrate 5ml solution of 1mg/ml concentration. An estimation of the total volume of the xylem tubing in a rose cutting of 15cm is 0.15ml taking into account an average diameter of xylem to be 20um. For this volume and since all the solution is taken up form the plant we end up with concentrations of the ETE-S molecule in the order of 30mg/ml. From microscopy images we see that approximately only 10% of the xylem is filled, while the majority of the rest is coated with the material and for that volume we have concentrations up to 300mg/ml. This high concentration in the plant allows the material to organize and polymerize in a way that creates highly conducting wires.

[3] = Xylem supercapacitor, specific capacitance of xylem wire electrodes; format: physicochemical, rose; conditions: from slope of capacitance per area vs length of xylem wire
Description: Plant's anatomy upon functionalization with the conducting material provides an ideal architecture for developing supercapacitors in vivo. The long-range conducting xylem wires are parallel and electronically isolated to each other while are surrounded with cellular domains and extracellular space rich in electrolyte. Therefore we explored the charge storage capacity of the xylem wires. Two parallel xylem wires served as the electrodes (capacitor plates) and the plant tissue in between them the spacer. Two Au probes defined the electrodes contacts. In the schematic of Fig. 36.a we show the general structure and the wiring of a supercapacitor along with the optical micrograph of the corresponding supercapacitor in the plant Fig. 36.b.
From the slope of the discharging curve we calculate the capacitance of the device equal to 1.3 10^-4 F The capacitive behavior of the material is indicated and by the square shaped voltamogramm Fig. 43 in the potential range of -0.5V - 0.5V. In order to extract the specific capacitance of the xylem electrodes we measure devices of various dimensions. Xylem wires have typically diameter of 30-50um and lengths in the cm scale. In Fig. 36.d. we show the capacitance per area (diameter of xylem wire) vs the length. From the slope we calculated the specific capacitance and found it equal to 20F/cm3, a value in the typical range for conducting polymers. […]

young bean plant = experiment: Immersion of bean plant roots or stem in compound 1 solution, plant survival and growth; format: in vivo; conditions: roots or stem immersed in 1 mg/mL aqueous solution; replanted in gel
Protocol: Figure 16A-E illustrates another experiment, with references to the alphabetical parts of figure in parenthesis. A young bean plant having a plurality of roots was used as a test specimen. In (A) the roots of the young bean plant were planted in a plastic container having Seedhru® gel as a soil substitute.. Two of the roots of the bean plant were immersed in a vial 1600 (B) containing aqueous solution of compound 1 (1 mg/mL). […] As soon as or shortly after the two roots were immersed the color of the compound 1 solution shifted from white to pink (D) and then back to white again. The reason of the color shift is still being investigated. […] After 24 hours one of the roots was removed from the compound 1 solution and can be seen in (E) and in figure 17. The other root was left immersed in the compound 1 solution for 24 more hours (total 48hours). After 48 hours the second root was cut of the bean plant and can be seen in figure 18.. Note that the part of the root which was immersed in compound 1 is now coated with polymerized compound 1 as indicated by the darker color. […]

[4] = Two-probe conductivity measurement of conducting wires in rose xylem; format: physicochemical, Rosa floribunda; conditions: xylem wires in rose stem, two Au probes
Protocol: We chose to use cuttings of Rosa floribunda (garden rose) as our model plant system. The lower part of a rose stem was cut and the fresh cross section was immersed in an aqueous PEDOT-S:H solution for 24-48 h (Fig. 7A), during which time the PEDOT-S:H solution was taken up into the xylem vascular channel and transported apically. The rose was taken from the solution and rinsed in water. The outer bark, cortex and phloem of the bottom part of the stem were then gently peeled off, exposing dark continuous lines along individual 20-100 µm wide xylem channels (Fig. 7B-D). These "wires" extended more than 5 cm along the stem. […] The conductivity of PEDOT-S:H wires was measured using two Au probes applied into individual PEDOT-S:H xylem wires along the stem (Fig. 7D). From the linear fit of resistance versus distance between the contacts, we found electrical conductivity reading 0.13 S/cm with contact resistance ∼10 kΩ (Fig. 7E). […]
Figure 29A is an external views of a plant part, in this case the steam where the epidermis has been peeled off, also showing two gold plated microelectrodes 2300 used to contact and penetrate a surface of the stem in order to reach the xylem channel. […] This is the currently highest measured electronic conductivity in a plant. […]

Compound	onset potential of the polymerization [1] [V]	conductivity ([2]; 10mg/ml solution)	conductivity ([2]; 50mg/ml solution)	specific capacitance [3] [F/cm3]	growth or survival of the plant (young bean plant)	electrical conductivity [4]
c1scc2c1OCCO2 [EDOT]	1.1					
exo-EDOT-Thiophene-EDOT-alkoxylfonate [compound 1]		10^-5 S/cm	~10^-3 S/CM	20	survives for at least two weeks; also recorded: showed further growth	approximately 1.5 S/cm
